Measurements reported in PubChem BioAssay AID2060357 (Molecular Pharmacology Branch, DTP, NCI, 2025).
Where “and” joins values, the source holds several entries; their conditions need not be identical. Equal entries are not always repeated.

Tested on: 292921-168-R-J2-PDC spheroids with HUVEC/MSC, viability
Assay: Anticancer human tumor 292921-168-R-J2-PDC patient-derived pancreatic carcinoma cell line growth inhibition [TAK]
Conditions: for viability, T/C: stronger effect = lower value
From the text: Combinatorial screen of targeted agents with TAK-243 and ipatasertib in multi-cell type tumor spheroids
A high-throughput screen of multi-cell type tumor spheroids was designed to identify active combinations of targeted small molecules and TAK-243 or ipatasertib. Complex spheroids include a stromal component modeled by human endothelial cells (HUVEC) and fibroblasts modeled by human mesenchymal stem cells (MSCs). The concentration ranges selected for each drug and investigational agent were based upon clinically achievable concentrations if the clinical Cmax of the agent was known.
Compounds. The drugs and investigational agents: TAK-243 (785004), ipatasertib (767898), everolimus (733504), selumetinib (741078), bortezomib (756655), trametinib (758246), ixazomib (758254), vemurafenib (761431), dabrafenib (764134), sapanisertib (764658), alpelisib (765974), and copanlisib (816437), were obtained from the National Cancer Institute (NCI) Developmental Therapeutics Program Chemical Repository. The FDA-approved anticancer drug set is available from the NCI Developmental Therapeutics Program. […] The stock solutions were prepared in dimethyl sulfoxide (DMSO, Sigma-Aldrich, St. Louis, MO, cat. D2650) at 800-fold the tested concentration and stored at -70 degrees C prior to their use. All drugs and investigational agents were tested over a range starting from a high concentration at or near the clinical Cmax and decreasing in half-log increments. If the clinical Cmax for an agent had not been determined, the highest concentration tested was 10 microM.
NCI60 Cell Culture. NCI60 cell lines were obtained from the NCI Developmental Therapeutics Program Tumor Repository. For each lot of cells, the Repository performed Applied Biosystems AmpFLSTR Identifiler testing with PCR amplification to confirm consistency with the published Identifier STR profile for each cell line. Cells were kept in continuous culture for no more than 20 passages. The optimal seeding densities for each of the cell lines at each time point assessed were determined prior to performing the concentration response studies. Briefly, the NCI60 human tumor lines were grown as monolayers in RPMI 1640 medium supplemented with 10% FBS and 2 mmol/L L-glutamine.
An additional 2 lines were from the NCI60 cell line panel including melanomas, MALME-3M and SK-MEL-2. Pooled donor human umbilical vein endothelial cells (HUVEC, Lonza, cat. CC-2519) and human mesenchymal stem cells (hMSC, Lonza, cat. PT-2501) were purchased from Lonza (Walkersville, MD).
PDMR cell lines were grown in complete medium (DC medium): Dulbecco's modified Eagle's medium (DMEM)/F12 supplemented with 5% fetal bovine serum (FBS), 2 mM L-glutamine, 100 U/mL penicillin and 100 µg/ml streptomycin, 0.4 µg/ml hydrocortisone, 10 ng/ml epidermal growth factor (EGF) recombinant human protein, 24 µg/mL adenine, and 0.1 mg/mL primocin. During culture from frozen stock vials, PDMR cells were cultured in the same medium containing 10 µM Y-27632 (see Table 3). The PDCs were cultured in complete DMEM/F12 media without 10 microM Y-27632 dihydrochloride for at least two passages prior to the screen. The pooled donor HUVEC and hMSC were cultured in endothelial cell growth medium 2 (PromoCell, Heidelberg, Germany, cat. C-22011) and mesenchymal stem cell growth medium 2 (PromoCell, cat. C-28009), respectively. For all experiments, HUVEC and hMSC were used at passages </=5.
For the pre-screen, cell seeding densities were determined from a titration spanning the range from 5,000 to 313 cells per well. The mct-spheroids including 60% malignant cells, 25% HUVEC and 15% MSC dispensed as a mixture into U-bottom Ultra-Low Attachment 384-well plates (Corning, NY)
High-throughput Drug Combination Screening.
Prior to their inoculation into 384-well plates, malignant cells, HUVEC, and hMSC were removed from T flasks using TrypLE express (Thermo Fisher Scientific, cat. 12605036) and harvested by centrifugation for 5 min at 233 x g. […]

[1] = curve of first compound, second compound 0.3 µM
[2] = curve of first compound, second compound 0.949 µM
[3] = curve of first compound, second compound 3 µM
[4] = curve of first compound, second compound 9.49 µM
[5] = curve of first compound, second compound 30 µM
[6] = second compound 0.3 µM, first compound 0.0316 µM
[7] = second compound 0.3 µM, first compound 0.1 µM
[8] = second compound 0.3 µM, first compound 0.316 µM
[9] = second compound 0.3 µM, first compound 1 µM
[10] = second compound 0.949 µM, first compound 0.0316 µM
[11] = second compound 0.949 µM, first compound 0.1 µM
[12] = second compound 0.949 µM, first compound 0.316 µM
[13] = second compound 0.949 µM, first compound 1 µM
[14] = second compound 3 µM, first compound 0.0316 µM
[15] = second compound 3 µM, first compound 0.1 µM
[16] = second compound 3 µM, first compound 0.316 µM
[17] = second compound 3 µM, first compound 1 µM
[18] = second compound 9.49 µM, first compound 0.0316 µM
[19] = second compound 9.49 µM, first compound 0.1 µM
[20] = second compound 9.49 µM, first compound 0.316 µM
[21] = second compound 9.49 µM, first compound 1 µM
[22] = second compound 30 µM, first compound 0.0316 µM
[23] = second compound 30 µM, first compound 0.1 µM
[24] = second compound 30 µM, first compound 0.316 µM
[25] = second compound 30 µM, first compound 1 µM
[26] = second compound 0.3 µM, first compound 0.00316 µM
[27] = second compound 0.3 µM, first compound 0.01 µM
[28] = second compound 0.949 µM, first compound 0.00316 µM
[29] = second compound 0.949 µM, first compound 0.01 µM
[30] = second compound 3 µM, first compound 0.00316 µM
[31] = second compound 3 µM, first compound 0.01 µM
[32] = second compound 9.49 µM, first compound 0.00316 µM
[33] = second compound 9.49 µM, first compound 0.01 µM
[34] = second compound 30 µM, first compound 0.00316 µM
[35] = second compound 30 µM, first compound 0.01 µM
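Also: spheroids exposed to drugs for seven days before readout.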

## COC1CC2CCC(C)C(O)(O2)C(=O)C(=O)N2CCCCC2C(=O)OC(C(C)CC2CCC(OCCO)C(OC)C2)CC(=O)C(C)C=C(C)C(O)C(OC)C(=O)C(C)CC(C)C=CC=CC=C1C (configuration not stated)
Compound 0.000316 µM
  viability, T/C: 83.9% and 83.3%
Compound 0.001 µM
  viability, T/C: 76.6% and 71.4%
Compound 0.00316 µM
  viability, T/C: 71.5% and 66.5%
Compound 0.01 µM
  viability, T/C: 64.1% and 59%
Compound 0.0316 µM
  viability, T/C: 59.8% and 64.2%
Compound 0.1 µM
  viability, T/C: 59.2% and 62.3%
Curve of compound
  IC50: > 100 nM

## Cc1nc(NC(=O)N2CCCC2C(N)=O)sc1-c1ccnc(C(C)(C)C(F)(F)F)c1 (configuration not stated) + CC(C)NCC(C(=O)N1CCN(c2ncnc3c2C(C)CC3O)CC1)c1ccc(Cl)cc1
[1]
  IC50: 295 nM
[2]
  IC50: 185 nM
[3]
  IC50: 184 nM
[4]
  IC50: 70.8 nM
[5]
  IC50: < 31.6 nM
[6]
  viability, T/C: 75.5%
[7]
  viability, T/C: 67.2%
[8]
  viability, T/C: 47.2%
[9]
  viability, T/C: 34.2%
Second compound 0.3 µM, first compound 3.16 µM
  viability, T/C: 26.2%
Second compound 0.3 µM, first compound 10 µM
  viability, T/C: 20%
[10]
  viability, T/C: 78.5%
[11]
  viability, T/C: 58.4%
[12]
  viability, T/C: 42.8%
[13]
  viability, T/C: 30.5%
Second compound 0.949 µM, first compound 3.16 µM
  viability, T/C: 24.1%
Second compound 0.949 µM, first compound 10 µM
  viability, T/C: 19.6%
[14]
  viability, T/C: 68.5%
[15]
  viability, T/C: 61.7%
[16]
  viability, T/C: 39.3%
[17]
  viability, T/C: 27.1%
Second compound 3 µM, first compound 3.16 µM
  viability, T/C: 23.4%
Second compound 3 µM, first compound 10 µM
  viability, T/C: 15.3%
[18]
  viability, T/C: 59.8%
[19]
  viability, T/C: 46.8%
[20]
  viability, T/C: 27.8%
[21]
  viability, T/C: 21.1%
Second compound 9.49 µM, first compound 3.16 µM
  viability, T/C: 17.8%
Second compound 9.49 µM, first compound 10 µM
  viability, T/C: 12.7%
[22]
  viability, T/C: 41.1%
[23]
  viability, T/C: 33.2%
[24]
  viability, T/C: 23.9%
[25]
  viability, T/C: 16.4%
Second compound 30 µM, first compound 3.16 µM
  viability, T/C: 13.4%
Second compound 30 µM, first compound 10 µM
  viability, T/C: 9.1%

## COc1c(OCCCN2CCOCC2)ccc2c3n(c(=NC(=O)c4cnc(N)nc4)nc12)CCN3 + CC(C)NCC(C(=O)N1CCN(c2ncnc3c2C(C)CC3O)CC1)c1ccc(Cl)cc1
[1]
  IC50: 4.15 nM
[2]
  IC50: < 3.16 nM
[3]
  IC50: < 3.16 nM
[4]
  IC50: < 3.16 nM
[5]
  IC50: < 3.16 nM
[26]
  viability, T/C: 55.2%
[27]
  viability, T/C: 33.2%
[6]
  viability, T/C: 19.1%
[7]
  viability, T/C: 13.5%
[8]
  viability, T/C: 10.2%
[9]
  viability, T/C: 9.21%
[28]
  viability, T/C: 43.5%
[29]
  viability, T/C: 27.5%
[10]
  viability, T/C: 20%
[11]
  viability, T/C: 13.1%
[12]
  viability, T/C: 9.66%
[13]
  viability, T/C: 8.79%
[30]
  viability, T/C: 30.2%
[31]
  viability, T/C: 21.4%
[14]
  viability, T/C: 15.2%
[15]
  viability, T/C: 12.4%
[16]
  viability, T/C: 9.94%
[17]
  viability, T/C: 8.66%
[32]
  viability, T/C: 26.4%
[33]
  viability, T/C: 15.9%
[18]
  viability, T/C: 12%
[19]
  viability, T/C: 9.29%
[20]
  viability, T/C: 8.18%
[21]
  viability, T/C: 7.72%
[34]
  viability, T/C: 19.8%
[35]
  viability, T/C: 14.1%
[22]
  viability, T/C: 10.3%
[23]
  viability, T/C: 7.72%
[24]
  viability, T/C: 6.76%
[25]
  viability, T/C: 7.15%

## CC(C)n1nc(-c2ccc3oc(N)nc3c2)c2c(N)ncnc21 + CC(C)NCC(C(=O)N1CCN(c2ncnc3c2C(C)CC3O)CC1)c1ccc(Cl)cc1
[1]
  IC50: 9.58 nM
[2]
  IC50: 8.57 nM
[3]
  IC50: 6.94 nM
[4]
  IC50: 2.52 nM
[5]
  IC50: < 0.316 nM
Second compound 0.3 µM, first compound 0.000316 µM
  viability, T/C: 81%
Second compound 0.3 µM, first compound 0.001 µM
  viability, T/C: 77.2%
[26]
  viability, T/C: 67.4%
[27]
  viability, T/C: 49.9%
[6]
  viability, T/C: 35.3%
[7]
  viability, T/C: 32.2%
Second compound 0.949 µM, first compound 0.000316 µM
  viability, T/C: 81.6%
Second compound 0.949 µM, first compound 0.001 µM
  viability, T/C: 70.9%
[28]
  viability, T/C: 63.7%
[29]
  viability, T/C: 48.9%
[10]
  viability, T/C: 35%
[11]
  viability, T/C: 32.2%
Second compound 3 µM, first compound 0.000316 µM
  viability, T/C: 73.6%
Second compound 3 µM, first compound 0.001 µM
  viability, T/C: 73%
[30]
  viability, T/C: 62.2%
[31]
  viability, T/C: 43.8%
[14]
  viability, T/C: 34.2%
[15]
  viability, T/C: 29%
Second compound 9.49 µM, first compound 0.000316 µM
  viability, T/C: 63.7%
Second compound 9.49 µM, first compound 0.001 µM
  viability, T/C: 57%
[32]
  viability, T/C: 48.3%
[33]
  viability, T/C: 37.8%
[18]
  viability, T/C: 27.6%
[19]
  viability, T/C: 26.3%
Second compound 30 µM, first compound 0.000316 µM
  viability, T/C: 43.4%
Second compound 30 µM, first compound 0.001 µM
  viability, T/C: 39.7%
[34]
  viability, T/C: 33.7%
[35]
  viability, T/C: 26.4%
[22]
  viability, T/C: 23.9%
[23]
  viability, T/C: 21.7%
